The test system of data set [1] is activation of MAPK within vascular endothelial cells induced by VEGF stimulation. In words: Inhibitory activity against activation of MAPK within vascular endothelial cells induced by VEGF stimulation. The class given is cell-based. As to conditions: human funicular venous vascular endothelial cells, VEGF 50 ng/ml, phosphorylated MAPK by immunoblotting. The method, then:
Measurement of Inhibitory Activity Against Activation of MAPK Within Vascular Endothelial Cells Induced by VEGF Stimulation
Human funicular venous vascular endothelial cells (purchased from Chronetics) were cultured in an EGM-2 medium (purchased from Chronetics) within an incubator containing 5% carbon dioxide until 50 to 70% confluent, and the culture was inoculated into wells, containing the same medium, in a 96-well flat-bottom plate in an amount of 1.5×10^5 per well. After cultivation at 37° C. overnight, the medium was replaced by an EBM-2 medium containing 0.5% fetal calf serum (purchased from Chronetics), followed by cultivation for 24 hr. A solution of the test compound in dimethyl sulfoxide was added to each well, and the cultivation was continued at 37° C. for additional one hr. A human recombinant vascular endothelial growth factor (hereinafter abbreviated to “VEGF”) was added to a final concentration of 50 ng/ml, and the stimulation of cells was carried out at 37° C. for 8 min. The medium was removed, the cells were washed with phosphate buffered saline (pH 7.4), and 10 μl of a solubilization buffer (Tris buffered saline (pH 7.4) containing 1% Triton X100, 2 mM sodium orthovanadylate, and 1 mM disodium ethylenediaminetetraacetate) was then added thereto. The mixture was shaken at 4° C. for one hr to solubilize the cells. An equal amount of Tris buffered saline containing 1% sodium laurylsulfate was added to and thoroughly mixed with the solution. This solution (2 μl) was adsorbed on a PVDF filter by dot blotting, and this filter was subjected to immunoblotting with anti-tyrosine phosphorylated MAPK antibody (purchased from Daiichi Pure Chemicals).
The level of phosphorylated MAPK was quantitatively determined with a densitometer, and the percentage phosphorylated MAPK in the presence of the test compound was determined by presuming the level of phosphorylated MAPK with the addition of VEGF in the absence of the test compound to be 100% and the level of phosphorylated MAPK in the absence of the test compound and VEGF to be 0%. The test compound concentration (IC50) necessary for inhibiting 50% of the activation of MAPK was calculated based on the percentage of phosphorylated MAPK.
On the technique in general: A western blot detects proteins with antibodies after separation by electrophoresis.

For data set [2], the system named is A375 human melanoma cells. In words: Karyomorphosis test. The class given is cell-based. The following applies: test compound 10 μM and 1 μM, 48 hr, nuclei stained with propidium iodide. The method, then: A375 human melanoma cells (2×10^4) (obtained from Japanese Foundation for Cancer Research) were incolulated on a culture slide (manufactured by Falcon) and were cultured at 37° C. After the elapse of 5 hr from the initiation of the cultivation, the test compound was added to 10 μM and 1 μM, and the cultivation was continued for additional 48 hr. After the fixation of cells, 50 μg/ml propidium iodide solution containing ribonuclease (200 μg/ml) was added to stain nuclei. The stained nuclei were observed under a fluorescent microscope to analyze the nuclei for abnormality of karyomorphosis.

For another data set, the target named is T1, human KDR (Homo sapiens, UniProt P35968).
T1 construct: expressed in transfected cells; host or cells: NIH 3T3 cells (Sawano A et al., Cell Growth & Differentiation 7, 213-221 (1996))
T1 sequence (P35968 20-1356): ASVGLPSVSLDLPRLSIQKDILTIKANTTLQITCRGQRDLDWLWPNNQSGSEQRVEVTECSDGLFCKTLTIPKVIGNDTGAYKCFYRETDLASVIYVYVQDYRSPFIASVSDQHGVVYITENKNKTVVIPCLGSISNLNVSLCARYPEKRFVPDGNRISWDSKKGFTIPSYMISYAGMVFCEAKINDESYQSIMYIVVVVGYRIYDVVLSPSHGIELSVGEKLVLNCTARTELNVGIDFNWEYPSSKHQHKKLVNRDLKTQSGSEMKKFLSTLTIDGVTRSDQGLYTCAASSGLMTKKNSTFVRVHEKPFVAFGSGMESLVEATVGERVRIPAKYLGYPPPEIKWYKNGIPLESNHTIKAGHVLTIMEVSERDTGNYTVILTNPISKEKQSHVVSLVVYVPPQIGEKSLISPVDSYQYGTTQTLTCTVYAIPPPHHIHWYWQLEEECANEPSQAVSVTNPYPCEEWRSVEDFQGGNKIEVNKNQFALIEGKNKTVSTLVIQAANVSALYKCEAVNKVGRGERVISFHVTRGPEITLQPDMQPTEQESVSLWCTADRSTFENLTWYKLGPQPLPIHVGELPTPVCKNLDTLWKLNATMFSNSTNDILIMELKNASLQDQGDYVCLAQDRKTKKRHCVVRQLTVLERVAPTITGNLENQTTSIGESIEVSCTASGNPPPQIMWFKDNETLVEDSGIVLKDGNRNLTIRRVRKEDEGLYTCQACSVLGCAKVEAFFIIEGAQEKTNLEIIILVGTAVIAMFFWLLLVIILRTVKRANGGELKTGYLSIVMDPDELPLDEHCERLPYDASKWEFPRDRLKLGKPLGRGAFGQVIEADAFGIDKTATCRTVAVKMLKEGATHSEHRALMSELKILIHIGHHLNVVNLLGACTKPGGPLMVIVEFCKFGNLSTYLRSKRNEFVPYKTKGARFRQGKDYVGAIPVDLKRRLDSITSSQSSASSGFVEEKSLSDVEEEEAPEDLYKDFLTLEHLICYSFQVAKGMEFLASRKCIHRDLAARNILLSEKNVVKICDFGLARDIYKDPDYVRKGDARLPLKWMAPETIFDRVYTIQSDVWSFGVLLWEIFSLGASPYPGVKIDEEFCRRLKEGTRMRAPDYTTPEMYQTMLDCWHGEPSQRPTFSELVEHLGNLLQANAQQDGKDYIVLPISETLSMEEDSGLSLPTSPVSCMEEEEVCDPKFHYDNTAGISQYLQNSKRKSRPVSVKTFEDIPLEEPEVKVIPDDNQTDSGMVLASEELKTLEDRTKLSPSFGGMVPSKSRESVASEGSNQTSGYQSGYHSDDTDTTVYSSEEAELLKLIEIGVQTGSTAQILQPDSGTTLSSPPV
Briefly: Inhibitory activity against KDR phosphorylation by ELISA. The class given is cell-based. As to conditions: NIH 3T3 cells transfected with human KDR, VEGF 100 ng/ml.

The subject of the next data set is Human glioma cells GL07. Briefly: Antitumor effect on human glioma cells (GL07) transplanted into nude mice. The class given is in vivo. As to conditions: Mus musculus, Glioma cell, 216 h, GL07, oral, 20 mg/kg once a day for 9 days, read-out: TGIR, % (tumor growth inhibition rate). The gist of the method:
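GL07 xenografts in nude mice, grouped (n=4) at ~100 mm^3 tumor volume. Test compound 20 mg/kg p.o. or i.p. once daily for 9 days; vehicle controls. TGIR = (1−Tx/Cx)×100 from tumor volumes normalized to day-of-start volume = 1.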

In the case of `COc1cc2nccc(Oc3cc(C)c(NC(=O)Nc4ccccc4C)cc3C)c2cc1OC` [Example 42, N-{4-[(6,7-Dimethoxy-4-guinolyl)oxy]-2,5-dimethylphenyl}-N′-(2-methylphenyl)urea], the concentration for half-maximal inhibition (IC50) (usually the concentration that gives 50% inhibition) in data set [1] stood at 5.9 nM. Besides, the Change in morphosis result in data set [2] is “(−) (the change in karyomorphosis of cells did not take place at 10 μM)”.
Take `COc1cc2nccc(Oc3cc(C)c(NC(=O)Nc4ccc(Br)c(C)n4)cc3C)c2cc1OC` [Example 44, N-(5-Bromo-6-methyl-2-pyridyl)-N′-{4-[(6,7-dimethoxy-4-quinolyl)oxy]-2,5-dimethylphenyl}urea]: in data set [2], the Change in morphosis entry is given as “(−) (the change in karyomorphosis of cells did not take place at 10 μM)”.
The same measure, in the same setting: the result for `COc1cc2nccc(Oc3ccc(NC(=O)Nc4ccc(Br)c(C)n4)c(Cl)c3)c2cc1OC` [Example 15, N-(5-Bromo-6-methyl-2-pyridyl)-N′-{2-chloro-4-[(6,7-dimethoxy-4-quinolyl)oxy]phenyl}urea] reads “(−) (the change in karyomorphosis of cells did not take place at 10 μM)”.
In data set [1] (Endothelial cell), `COc1cc2nccc(Oc3cc(C)c(NC(=O)Nc4ccc(F)cc4C)cc3C)c2cc1OC` [Example 40, N-{4-[(6,7-Dimethoxy-4-quinolyl)oxy]-2,5-dimethylphenyl}-N′-(4-fluoro-2-methylphenyl)urea] returned an IC50 of 12 nM. The Change in morphosis entry in data set [2] is reported as “(−) (the change in karyomorphosis of cells did not take place at 10 μM)”.
In turn, `COc1ccc(NC(=O)Nc2ccc(Oc3ccnc4cc(OC)c(OC)cc34)c(C)c2C)cc1` [Example 36, N-{4-[(6,7-Dimethoxy-4-guinolyl)oxy]-2,3-dimethylphenyl}-N′-(4-methoxyphenyl)urea] came in with an IC50 in data set [1] of 3.3 nM. Besides, the Change in morphosis entry in data set [2] was “(−) (the change in karyomorphosis of cells did not take place at 10 μM)”.
The compound `COc1cc2nccc(Oc3cc(C)c(NC(=O)Nc4cccc(F)c4OC)cc3C)c2cc1OC` [Example 41, N-{4-[(6,7-Dimethoxy-4-quinolyl)oxy]-2,5-dimethylphenyl}-N′-(3-fluoro-2-methoxyphenyl)urea] yielded an IC50 in data set [1] (Endothelial cell) of 4.9 nM. For the same compound, the Change in morphosis result in data set [2] is “(−) (the change in karyomorphosis of cells did not take place at 10 μM)”.
In data set [1] (Endothelial cell), `COc1cc2nccc(Oc3ccc(NC(=O)Nc4cccc(C)n4)c(C)c3C)c2cc1OC` [Example 35, N-{4-[(6,7-Dimethoxy-4-quinolyl)oxy]-2,3-dimethylphenyl}-N′-(6-methyl-2-pyridyl)urea] had a half-inhibitory concentration (IC50) of 3.7 nM. The Change in morphosis entry in data set [2] is listed as “(−) (the change in karyomorphosis of cells did not take place at 10 μM)”.
For `COc1cc2nccc(Oc3ccc(NC(=O)Nc4cccc(C)n4)c(Cl)c3)c2cc1OC` [Example 21, N-{2-Chloro-4-[(6,7-dimethoxy-4-quinolyl)oxy]phenyl}-N′-(6-methyl-2-pyridyl)urea], in data set [1] (Endothelial cell), the IC50 amounted to 3.4 nM. Further, the Change in morphosis result in data set [2] is “(−) (the change in karyomorphosis of cells did not take place at 10 μM)”.
For the compound `CCCNC(=O)Nc1ccc(Oc2ccnc3cc(OC)c(OC)cc23)cc1[N+](=O)[O-]` [Example 47, N-{4-[(6,7-Dimethoxy-4-guinolyl)oxy]-2-nitrophenyl}-N′-propylurea], the 50% inhibitory concentration (IC50) in data set [1] was determined as 4 nM. Besides, the Change in morphosis result in data set [2] is given as “(−) (the change in karyomorphosis of cells did not take place at 10 μM)”.
Turning to `COc1ccc(NC(=O)Nc2cc(C)c(Oc3ccnc4cc(OC)c(OC)cc34)cc2C)c(OC)n1` [Example 45, N-(2,6-Dimethoxy-3-pyridyl)-N′-{4-[(6,7-dimethoxy-4-quinolyl)oxy]-2,5-dimethylphenyl}urea], in data set [1] (Endothelial cell), the concentration for half-maximal inhibition (IC50) is 2 nM. The Change in morphosis entry in data set [2] is reported as “(−) (the change in karyomorphosis of cells did not take place at 10 μM)”.
In the case of `COc1ccccc1NC(=O)Nc1cc(C)c(Oc2ccnc3cc(OCCN4CCOCC4)c(OC)cc23)cc1C` [Example 53, N-(4-{[6-Methoxy-7-(2-morpholinoethoxy)-4-quinolyl]oxy}-2,5-dimethylphenyl)-N′-(2-methoxyphenyl)urea], the concentration for half-maximal inhibition (IC50) in data set [1] (Endothelial cell) amounted to 5.9 nM. Moreover, the Change in morphosis entry in data set [2] is listed as “(−) (the change in karyomorphosis of cells did not take place at 10 μM)”.
As for `COc1cc2nccc(Oc3ccc(NC(=O)Nc4ccc(C)cn4)c(C)c3C)c2cc1OC` [Example 34, N-{4-[(6,7-Dimethoxy-4-guinolyl)oxy]-2,3-dimethylphenyl}-N′-(5-methyl-2-pyridyl)urea], in data set [1], it took 4.2 nM to reach half-maximal inhibition (IC50). Further, in data set [2], the Change in morphosis result is “(−) (the change in karyomorphosis of cells did not take place at 10 μM)”.
Turning to `COc1cc2nccc(Oc3cc(C)c(NC(=O)Nc4ccc(Cl)cc4C)cc3C)c2cc1OC` [Example 39, N-(4-chloro-2-methylphenyl)-N′-{4-[(6,7-dimethoxy-4-quinolyl)oxy]-2,5-dimethylphenyl}urea], in data set [2], the Change in morphosis entry is on record as “(−) (the change in karyomorphosis of cells did not take place at 10 μM)”.
On to `COc1cc2ncnc(Oc3ccc(NC(=O)Nc4ccc(F)cc4)c(C)c3)c2cc1OC` [Example 105, N-{4-[(6,7-Dimethoxy-4-quinazolinyl)oxy]-2-methylphenyl}-N′-(4-fluorophenyl)urea], for which the half-maximal inhibitory concentration (IC50) in data set [1] (Endothelial cell) amounted to 2.3 nM; on human KDR, 2 nM. Further, the inhibition in vivo at 20 mg/kg with Human glioma cells GL07 turned out to be 20%.
With `COc1ccccc1NC(=O)Nc1ccc(Oc2ccnc3cc(OCc4ccccc4)c(OC)cc23)c(C)c1C` [Example 60, N-(4-{[7-(Benzyloxy)-6-methoxy-4-quinolyl]oxy}-2,3-dimethylphenyl)-N′-(2-methoxyphenyl)-urea], the Change in morphosis result in data set [2] is “(−) (the change in karyomorphosis of cells did not take place at 10 μM)”.
On to `COc1cc2ncnc(Oc3ccc(NC(=O)Nc4ccccc4C)cc3)c2cc1OC` [Example 74, N-{4-[(6,7-Dimethoxy-4-quinazolinyl)oxy]-phenyl}-N′-(2-methylphenyl)urea], for which the IC50 in data set [1] (Endothelial cell) came out at 6 nM; on human KDR, 11 nM. Moreover, the inhibition in vivo at 20 mg/kg in the data set on Human glioma cells GL07 is 28%.
Take `CCCNC(=O)Nc1cc(C)c(Oc2ccnc3cc(OC)c(OC)cc23)cc1C` [Example 38, N-{4-[(6,7-Dimethoxy-4-quinolyl)oxy]-2,5-dimethylphenyl}-N′-propylurea]: the Change in morphosis entry in data set [2] is recorded as “(−) (the change in karyomorphosis of cells did not take place at 10 μM)”.
On to `COc1cc2ncnc(Oc3ccc(NC(=O)NCc4ccc(F)cc4F)c(F)c3)c2cc1OC` [Example 93, N-(2,4-Difluorobenzyl)-N′-{4-[(6,7-dimethoxy-4-quinazolinyl)oxy]-2-fluorophenyl}urea], for which the IC50 in data set [1] (Endothelial cell) was determined as 14 nM; on human KDR, 37 nM. Further, the inhibition in vivo at 20 mg/kg in the data set with Human glioma cells GL07 was determined as 29%.
Regarding `COc1cc2ncnc(Oc3ccc(NC(=O)Nc4ccc(F)cc4F)c(Cl)c3)c2cc1OC` [Example 61, N-{2-Chloro-4-[(6,7-dimethoxy-4-quinazolinyl)oxy]phenyl}-N′-(2,4-difluorophenyl)urea], in data set [2], the Change in morphosis entry is recorded as “(−) (the change in karyomorphosis of cells did not take place at 10 μM)”.
Take `COc1cc2ncnc(Oc3ccc(NC(=O)NCc4ccccn4)cc3)c2cc1OC` [Example 71, N-{4-[(6,7-Dimethoxy-4-quinazolinyl)oxy]-phenyl}-N′-(2-pyridylmethyl)urea]: the figures for the concentration for half-maximal inhibition (IC50) (in data set [1] (Endothelial cell); against human KDR) were 750 nM and 350 nM, respectively. Moreover, in the data set with Human glioma cells GL07, the inhibition in vivo at 20 mg/kg turned out to be 67%.

The values above are taken from patent publication US7169789B2 (Kirin Beer Kabushiki Kaisha, priority 1999, dated 2007).
